Among the data in US10273234B2, “Compounds that are S1P modulating agents and/or ATX modulating agents” (BIOGEN MA INC., priority 2012, dated 2019) are IC50 values, retold here.

In the experiment the target is Human ATX protein (Homo sapiens (Human), UniProt Q13822). Put plainly: ATX biochemical FRET assay with FS-3 substrate. The following applies: 1.0 μg/mL ATX, 2 μM FS-3, 2 hours at room temperature. An excerpt:
ATX (Autotaxin) is a 125 KDa glycoprotein with lysophospholipase D (LPLD) activity that generates the bioactive lipid lysophosphatidic acid (LPA) from lysophosphatidylcholine (LPC). The ATX biochemical assay utilizes a FRET (fluorescence resonance energy transfer) technology platform. The fluorescence signal of FRET substrate FS-3 is quenched due to intra-molecular FRET of a fluorophore to a non-fluorescing quencher (Ferguson, C. G., et al., Org Lett. 2006 May 11; 8(10): 2023-2026, which is incorporated by reference in its entirety). ATX catalyzes the hydrolysis of the substrate which separates the dabsyl quencher from the fluorescein reporter, which becomes fluorescent. The reaction is monitored by a SpectraMax M5 (Molecular Devices, Sunnyvale, Calif.) with at excitation wavelength 485 nm and emission wavelength […].
2×ATX assay buffer: 100 mM Tris, 280 mM NaCl, 10 mM KCl, 2 mM CaCl2, 2 mM MgCl2, pH 7.4.
Human ATX protein: expressed and purified in house. Stored at −80° C.
Substrate FS-3 (Echelon, L-2000): 100 μg in 77.74 μL H2O (1 mM stock), stored at −20° C.
Compound dilution—All compounds were provided at 10 mM in 100% DMSO. In the first well, 2 μL of 10 mM compound was added to 78 μL of DMSO (1:40 dilution). In subsequent wells 3-fold dilution (total 10 dilutions) were performed.
1×ATX assay buffer was made up with a final concentration of 1 mg/mL fatty acid free-BSA using 2×ATX assay buffer, 10 mg/ml fatty acid free-BSA and ddH2O.
ATX protein was diluted with 1×ATX assay buffer to a concentration of 1.32 μg/mL (1.32×). 38 μL was added per well to the assay plate. The final concentration of ATX in the reaction as 1.0 μg/mL.
2 μL per well of compounds was transferred to provide the desired concentration. The plate was centrifuged, then incubated at room temperature for 30 minutes on the shaker.
FS-3 was diluted with 1×ATX assay buffer to a concentration of FS-3 of 10 μM (5×). Then, 10 μL was added per well to the assay plate. The final concentration of FS-3 in the reaction was 2 μM. The plate was centrifuged. The plate was kept shaking at room temperature for 2 hours. Because FS-3 substrate is light sensitive, plates were kept covered and protected from light.
Fluorescence was measured using SpectraMax M5 (excitation at 485 nm/emission at 538 nm, top read).
With `CC(C)(C)[C@H]1CC[C@H](Oc2cccc3cc(CN4C5CCC4CC(C(=O)O)C5)ccc23)CC1` (stereo partly drawn) [Example 1, 8-((5-((trans-4-(tert-butyl)cyclohexyl)oxy)naphthalen-2-yl)methyl)-8-azabicyclo[3.2.1]octane-3-carboxylic acid], the 50% inhibitory concentration (IC50) lay in the range of 0.5 to 5 µM. The result for `CC(C)(C)[C@H]1CC[C@H](Oc2cccc3cc(CN4C5CCCC4CC(C(=O)O)C5)ccc23)CC1` (stereo partly drawn) [Example 2, 9-((5-((trans-4-(tert-butyl)cyclohexyl)oxy)naphthalen-2-yl)methyl)-9-azabicyclo[3.3.1]nonane-3-carboxylic acid] reads over 5 µM. Then `CC1(C)C(NCc2ccc3c(O[C@H]4CC[C@H](C(C)(C)C)CC4)cccc3c2)CC1C(=O)O` (stereo partly drawn) [Example 3, 3-(((5-((trans-4-(tert-butyl)cyclohexyl)oxy)naphthalen-2-yl)methyl)amino)-2,2-dimethylcyclobutanecarboxylic acid], with 0.5 to 5 µM; and `CC(C)(C)[C@H]1CC[C@H](Oc2cccc3cc(CN4CC(C(=O)O)C4)ccc23)CC1` [Example 4, 1-((5-((trans-4-(tert-butyl)cyclohexyl)oxy)naphthalen-2-yl)methyl)azetidine-3-carboxylic acid], with under 0.5 µM; and `CC(C)(C)[C@H]1CC[C@H](Oc2cccc3cc(CN4CC5CC(C(=O)O)CC5C4)ccc23)CC1` (stereo partly drawn) [Example 5, 2-((5-((trans-4-(tert-butyl)cyclohexyl)oxy)naphthalen-2-yl)methyl)octahydrocyclopenta[c]pyrrole-5-carboxylic acid], with 0.5 to 5 µM.

In turn, `CC(C)(C)[C@H]1CC[C@H](Oc2cccc3cc(CNC4CC(C(=O)O)C4)ccc23)CC1` (stereo partly drawn) [Example 7, 3-(((5-((trans-4-(tert-butyl)cyclohexyl)oxy)naphthalen-2-yl)methyl)amino)cyclobutanecarboxylic acid] showed an IC50 of 0.5 to 5 µM. The result for `CC(C)(C)[C@H]1CC[C@H](Oc2cccc3cc(CN4CCCC(C(=O)O)CC4)ccc23)CC1` (stereo partly drawn) [Example 8, 1-((5-((trans-4-(tert-butyl)cyclohexyl)oxy)naphthalen-2-yl)methyl)azepane-4-carboxylic acid] reads over 5 µM; that for `O=C(O)C1CCN(Cc2ccc3c(O[C@H]4CC[C@H](C(F)(F)F)CC4)cccc3c2)CC1` [Example 9, 1-((5-((trans-4-(trifluoromethyl)cyclohexyl)oxy)naphthalen-2-yl)methyl)piperidine-4-carboxylic acid], 0.5 to 5 µM; that for `O=C(O)C1CCN(Cc2ccc3c(O[C@H]4CC[C@@H](C(F)(F)F)CC4)cccc3c2)CC1` [Example 10, 1-((5-((cis-4-(trifluoromethyl)cyclohexyl)oxy)naphthalen-2-yl)methyl)piperidine-4-carboxylic acid], over 5 µM.

On to `CC(C)[C@H]1CC[C@@H](Oc2cccc3cc(CN4CCC(C(=O)O)CC4)ccc23)CC1` [Example 11, 1-((5-((cis-4-isopropylcyclohexyl)oxy)naphthalen-2-yl)methyl)piperidine-4-carboxylic acid], for which the IC50 was over 5 µM. Then `CC[C@H]1CC[C@@H](Oc2cccc3cc(CN4CCC(C(=O)O)CC4)ccc23)CC1` [Example 12, 1-((5-((cis-4-ethylcyclohexyl)oxy)naphthalen-2-yl)methyl)piperidine-4-carboxylic acid], with 0.5 to 5 µM; and `CC(C)[C@H]1CC[C@H](Oc2cccc3cc(CN4CCC(C(=O)O)CC4)ccc23)CC1` [Example 13, 1-((5-((trans-4-isopropylcyclohexyl)oxy)naphthalen-2-yl)methyl)piperidine-4-carboxylic acid], with 0.5 to 5 µM. Then `CC[C@H]1CC[C@H](Oc2cccc3cc(CN4CCC(C(=O)O)CC4)ccc23)CC1` [Example 14, 1-((5-((trans-4-ethylcyclohexyl)oxy)naphthalen-2-yl)methyl)piperidine-4-carboxylic acid], with 0.5 to 5 µM. The result for `C[C@H]1CC[C@H](Oc2cccc3cc(CN4CCC(C(=O)O)CC4)ccc23)CC1` [Example 15, 1-((5-((trans-4-methylcyclohexyl)oxy)naphthalen-2-yl)methyl)piperidine-4-carboxylic acid] reads 0.5 to 5 µM; that for `C[C@H]1CC[C@H](Oc2cccc3cc(CN4CC(C(=O)O)C4)ccc23)CC1` [Example 17, 1-((5-((trans-4-methylcyclohexyl)oxy)naphthalen-2-yl)methyl)azetidine-3-carboxylic acid], over 5 µM; that for `O=C(O)C1CN(Cc2ccc3c(O[C@H]4CC[C@H](c5ccccc5)CC4)cccc3c2)C1` [Example 18, 1-((5-((trans-4-phenylcyclohexyl)oxy)naphthalen-2-yl)methyl)azetidine-3-carboxylic acid], over 5 µM. For the molecule `CC[C@H]1CC[C@H](Oc2cccc3cc(CN4CC(C(=O)O)C4)ccc23)CC1` [Example 19, 1-((5-((trans-4-ethylcyclohexyl)oxy)naphthalen-2-yl)methyl)azetidine-3-carboxylic acid], the IC50 was 0.5 to 5 µM.

Regarding `O=C(O)C1CN(Cc2ccc3c(O[C@H]4CC[C@H](C(F)(F)F)CC4)cccc3c2)C1` [Example 20, 1-((5-((trans-4-(trifluoromethyl)cyclohexyl)oxy)naphthalen-2-yl)methyl)azetidine-3-carboxylic acid], the IC50 was in the range of 0.5 to 5 µM. The result for `CC(C)[C@H]1CC[C@H](Oc2cccc3cc(CN4CC(C(=O)O)C4)ccc23)CC1` [Example 21, 1-((5-((trans-4-isopropylcyclohexyl)oxy)naphthalen-2-yl)methyl)azetidine-3-carboxylic acid] reads over 5 µM. The result for `CCCC[C@H]1CC[C@H](Oc2cccc3cc(CN4CC(C(=O)O)C4)ccc23)CC1` [Example 22, 1-((5-((trans-4-butylcyclohexyl)oxy)naphthalen-2-yl)methyl)azetidine-3-carboxylic acid] reads over 5 µM; that for `O=C(O)C1CN(Cc2ccc3c(O[C@H]4CC[C@H](C5CCCC5)CC4)cccc3c2)C1` [Example 23, 1-((5-((trans-4-cyclopentylcyclohexyl)oxy)naphthalen-2-yl)methyl)azetidine-3-carboxylic acid], over 5 µM; that for `CC(C)(C)[C@H]1CC[C@H](Oc2cccc3cc(CN4CCC(C(=O)O)CC4)ccc23)CC1` [Example 24, 1-((5-((trans-4-(tert-butyl)cyclohexyl)oxy)naphthalen-2-yl)methyl)piperidine-4-carboxylic acid], under 0.5 µM. As to `CCCCCCCOc1cccc2cc(CN3CCC(C(=O)O)CC3)ccc12` [Example 25, 1-((5-(heptyloxy)naphthalen-2-yl)methyl)piperidine-4-carboxylic acid], the IC50 is over 5 µM.

The molecule `C[C@H]1CC[C@@H](Oc2cccc3cc(CN4C5CCCC4CC(C(=O)O)C5)ccc23)CC1` (stereo partly drawn) [Example 26, 9-((5-((cis-4-methylcyclohexyl)oxy)naphthalen-2-yl)methyl)-9-azabicyclo[3.3.1]nonane-3-carboxylic acid] returned an IC50 of 0.5 to 5 µM. The result for `C[C@H]1CC[C@@H](Oc2cccc3cc(CN4C5CCC4CC(C(=O)O)C5)ccc23)CC1` (stereo partly drawn) [Example 27, 8-((5-((cis-4-methylcyclohexyl)oxy)naphthalen-2-yl)methyl)-8-azabicyclo[3.2.1]octane-3-carboxylic acid] reads 0.5 to 5 µM; that for `C[C@H]1CC[C@@H](Oc2cccc3cc(CN4CCC(C(=O)O)CC4)ccc23)CC1` [Example 28, 1-((5-((cis-4-methylcyclohexyl)oxy)naphthalen-2-yl)methyl)piperidine-4-carboxylic acid], over 5 µM.
